≈ marks a conversion by molar mass, not a printed value.
Experiments:
[1] = test system: genus Staphylococcus, Staphylococcus epidermidis, Staphylococcus aureus, methicillin-resistant Staphylococcus epidermidis, and methicillin-resistant …; conditions: cited from earlier work
[2] = test system: Enterococcus faecium 700221; assay: MIC/MBC by tube dilution procedure; type: cell-based; conditions: preliminary evaluation
Protocol: (§1) The effectiveness of the antimicrobial property of pure […] is described in terms of minimum inhibitory concentration (MIC) and minimum bactericidal concentration (MBC) in Table II (A). Minimum inhibitory concentration is the lowest concentration that prevents the development of visible growth after a period of incubation. Minimum bactericidal concentration is the lowest concentration that achieves a 1000 fold or greater reduction in the original bacterial inoculum. The minimum inhibitory concentration and minimum bactericidal concentration is evaluated using tube dilution procedure.

[3] = test system: Staphylococcus aureus 33591; assay: MIC/MBC by tube dilution procedure; type: cell-based; conditions: preliminary evaluation
Protocol: as §1

[4] = test system: Staphylococcus aureus 6538; assay: MIC/MBC by tube dilution procedure; type: cell-based; conditions: preliminary evaluation
Protocol: (§2) The effectiveness of the antimicrobial property of pure DIMPTS is described in terms of minimum inhibitory concentration (MIC) and minimum bactericidal concentration (MBC) in Table II (A). Minimum inhibitory concentration is the lowest concentration that prevents the development of visible growth after a period of incubation. Minimum bactericidal concentration is the lowest concentration that achieves a 1000 fold or greater reduction in the original bacterial inoculum. The minimum inhibitory concentration and minimum bactericidal concentration is evaluated using tube dilution procedure.

[5] = test system: Streptococcus agalactiae 624; assay: MIC/MBC by tube dilution procedure; type: cell-based; conditions: preliminary evaluation
Protocol: as §2

Bacillus subtilis 902173 = assay: MIC/MBC by tube dilution procedure; type: cell-based; conditions: preliminary evaluation
Protocol: as §2

Escherichia coli 8739 = assay: MIC/MBC by tube dilution procedure; type: cell-based; conditions: preliminary evaluation
Protocol: as §2

[6] = test system: Staphylococcus epidermidis 51625; assay: MIC/MBC by tube dilution procedure; type: cell-based; conditions: preliminary evaluation
Protocol: as §2

Candida albicans 10231 = assay: MIC/MBC by tube dilution procedure; type: cell-based; conditions: preliminary evaluation
Protocol: as §2

[7] = test system: Pseudomonas aeruginosa 9027; assay: MIC/MBC by tube dilution procedure; type: cell-based; conditions: preliminary evaluation
Protocol: as §2

[8] = test system: S. aureus, E. coli, P. aeruginosa, K. pneumoniae, P. cepacia, E. cloacae, S. marcescens, S. pyogenes, E. faecalis-Vancomycin Resistant, C. albicans and B. …; conditions: reported for blends with acrylic hot melt adhesive polymers; cited from earlier work
[9] = aqueous; cited from earlier work

Structure (SMILES): Oc1cc(Cl)ccc1Oc1ccc(Cl)cc1Cl [2,4,4′-trichloro-2′-hydroxydiphenyl ether]
- Antimicrobial effect [1]: has an antimicrobial effect

Structure (SMILES): Cc1ccc(S(=O)(=O)C(I)I)cc1 [DIMPTS, diiodomethyl-p-tolylsulfone]
- MIC [2]: 50 µg/mL (≈ 118 µM)
- MBC [3]: < 250 µg/mL
- MIC [3]: 12.5 µg/mL (≈ 29.6 µM)
- MBC [4]: < 250 µg/mL
- MIC [4]: 100 µg/mL (≈ 237 µM)
- MBC [5]: 125 to 250 µg/mL (≈ 296 to 592 µM)
- MIC [5]: 50 µg/mL (≈ 118 µM)
- MBC (Bacillus subtilis 902173): 50 to 100 µg/mL (≈ 118 to 237 µM)
- MIC (Bacillus subtilis 902173): 50 µg/mL (≈ 118 µM)
- MBC (Escherichia coli 8739): < 250 µg/mL
- MIC (Escherichia coli 8739): 100 µg/mL (≈ 237 µM)
- MBC [6]: < 100 µg/mL
- MIC [6]: 25 µg/mL (≈ 59.2 µM)
- MBC (Candida albicans 10231): 10 to 100 µg/mL (≈ 23.7 to 237 µM)
- MIC (Candida albicans 10231): 5 µg/mL (≈ 11.8 µM)
- MIC [7]: > 100 µg/mL
- Zones of inhibition against several organisms [8]: zones of inhibition

Structure (SMILES): [O-][Cl+3]([O-])([O-])O [perchloric acid]
- pKa [9]: −5.0

From US20090297469A1, “Cyanoacrylate Monomer Formulation Containing Diiodomethyl-p-tolylsulfone and 2,4,4'-Trichloro-2'-Hydroxydiphenyl Ether” (priority 2004, published 2009)
